This note sets out measurements from patent US9920013B2, “2,5-dioxoimidazolidin-1-yl-3-urea derivatives as formyl peptide modulators” (Allergan, Inc., priority 2014, dated 2018).

The test deals with T1, FPR2 (Homo sapiens, UniProt P25090).
T1 construct: expressed in transfected cells
T1 sequence (P25090 1-351): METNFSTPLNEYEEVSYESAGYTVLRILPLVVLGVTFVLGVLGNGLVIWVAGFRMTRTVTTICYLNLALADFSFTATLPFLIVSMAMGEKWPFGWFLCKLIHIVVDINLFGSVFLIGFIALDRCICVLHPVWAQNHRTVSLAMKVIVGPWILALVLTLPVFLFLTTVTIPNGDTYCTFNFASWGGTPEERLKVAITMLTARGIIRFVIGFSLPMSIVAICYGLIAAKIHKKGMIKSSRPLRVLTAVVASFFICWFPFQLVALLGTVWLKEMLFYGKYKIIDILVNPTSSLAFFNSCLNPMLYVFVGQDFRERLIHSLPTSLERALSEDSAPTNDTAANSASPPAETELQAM
The test can be described thus: FPR2 calcium activity assay on FLIPR Tetra in CHO-Gα16 cells stably expressing FPR2. The class given is cell-based. The settings on record: for EC50: compound-induced calcium activity, 0.61 to 10,000 nM. The method, then: CHO-Gα16 cells stably expressing FPR2 were cultured in F12 media (10% FBS, 1% PSA, 400 μg/ml geneticin and 50 μg/ml hygromycin). In general, the day before the experiment, 18,000 cells/well were plated in a 384-well clear bottom poly-D-lysine coated plate. The following day the screening compound-induced calcium activity was assayed on a FLIPR^Tetra. The drug plates were prepared in 384-well microplates using EP3 and MultiPROBE robotic liquid handling systems. Compounds were tested at concentrations ranging from 0.61 to 10,000 nM. Results are expressed as EC50 (nM) and % efficacy values.

The EC50 is the midpoint of the concentration-response curve. With `CC(=O)OCCNC(=O)CC1(C(C)C)NC(=O)N(NC(=O)Nc2ccc(Br)cc2)C1=O` (stereo not drawn) [Compound 3, 2-({[1-{[(4-Bromophenyl)carbamoyl]amino}-2,5-Dioxo-4-(propan-2-yl)imidazolidin-4-yl]acetyl}amino)ethyl acetate], the “FPR2 Gα16-CHO (%eff)” value was “(0.97)” and the 50% effective concentration (EC50) amounted to 10 nM.
Consider `CC(=O)NCCNC(=O)CC1(C(C)C)NC(=O)N(NC(=O)Nc2ccc(Br)cc2)C1=O` (stereo not drawn) [Compound 1, N-[2-(Acetylamino)ethyl]-2-[1-{[(4-Bromophenyl)carbamoyl]amino}-2,5-dioxo-4-(propan-2-yl)imidazolidin-4-yl]acetamide], for which the “FPR2 Gα16-CHO (%eff)” value was “(0.94)” and the EC50 came out at 6 nM.
For the compound `CC(=O)OCCNC(=O)CC1(C(C)C)NC(=O)N(NC(=O)Nc2ccc(Br)cc2F)C1=O` (stereo not drawn) [Compound 2, 2-({[1-{[(4-Bromo-2-Fluorophenyl)carbamoyl]amino}-2,5-dioxo-4-(propan-2-yl)imidazolidin-4-yl]acetyl}amino)ethyl acetate], the “FPR2 Gα16-CHO (%eff)” value is “(0.94)” and the EC50 came out at 4 nM.
